Measurements reported in patent US8076487B2, “Pyridone derivative and herbicide” (Kumiai Chemical Industry Co., Ltd., priority 2006, dated 2011).

Experiments:
Type in all cases: in vivo
[1] = tested on: early watergrass (Echinochloa oryzicola Vasing); experiment: Test Example 1: herbicidal effect by soil application to paddy field; details: paddy field soil application; active ingredient 1,000 g per 1 hectare; wettable powder added dropwise to water surface the day after sowing; examined on the 21st day after application
Summary of the method: (§1)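 Plants were sown in flooded (3 cm) paddy soil and evaluated for herbicidal effect 21 days after soil application in a greenhouse.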

[2] = tested on: heartshape false pickerelweed (Monochoria vaginalis (Burm.f.) C.Presl); experiment: as above; details: paddy field soil application; active ingredient 1,000 g per 1 hectare; wettable powder added dropwise to water surface the day after sowing; examined on the 21st day after application
Summary of the method: as §1

[3] = tested on: Japanese bulrush (Scirpus juncoides Roxb.); experiment: as above; details: paddy field soil application; active ingredient 1,000 g per 1 hectare; wettable powder added dropwise to water surface the day after sowing; examined on the 21st day after application
Summary of the method: as §1

[4] = tested on: slender amaranth (Amaranthus viridis L.); experiment: Test Example 2: herbicidal effect by soil application to upland field; details: soil surface spray, upland field soil, 1,000 g active ingredient per hectare, 21st day after application
Procedure: (§2) [table] Test Example 2 Test on Herbicidal Effect by Soil Application to Upland field In a 80 cm2 plastic pot, field soil was filled. Seeds of barnyardgrass (Echinochloa crus-galli (L.) P. Beauv. var. crus-galli), green foxtail (Setaria viridis (L.) P. Beauv.), velvetleaf (Abutilon theophrasti medicus), and slender amaranth (Amaranthus viridis L.) were sown and covered with soils. The wettable powder prepared according to Formulation Example 1 was diluted in water and a 1,000 liter equivalent amount per 1 hectare so that the active ingredient becomes 1,000 g per 1 hectare was uniformly sprayed on a soil surface using a small sprayer. Then, on the 21st day after the application to the plants grew in a greenhouse, the herbicidal effect was examined in accordance with a standard shown in Table 34.

[5] = tested on: green foxtail (Setaria viridis (L.) P. Beauv.); experiment: as above; details: soil surface spray, upland field soil, 1,000 g active ingredient per hectare, 21st day after application
Procedure: as §2

[6] = tested on: velvetleaf (Abutilon theophrasti medicus); experiment: as above; details: soil surface spray, upland field soil, 1,000 g active ingredient per hectare, 21st day after application
Procedure: as §2

[7] = tested on: barnyardgrass (Echinochloa crus-galli (L.) P. Beauv. var. crus-galli); experiment: as above; details: soil surface spray, upland field soil, 1,000 g active ingredient per hectare, 21st day after application
Procedure: as §2

[8] = tested on: slender amaranth (Amaranthus viridis L.); experiment: Test Example 3: herbicidal effect by application to upland field (foliage treatment); details: foliage treatment, 1,000 g active ingredient per 1 hectare, 14th day after application, greenhouse
Summary of the method: (§3)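 Upland foliage test in greenhouse pots of field soil: seedlings sprayed at two weeks post-sowing with 1,000 g/ha active ingredient (wettable powder, 1,000 L water/ha). Scored 14 d after application.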

[9] = tested on: green foxtail (Setaria viridis (L.) P. Beauv.); experiment: as above; details: foliage treatment, 1,000 g active ingredient per 1 hectare, 14th day after application, greenhouse
Summary of the method: as §3

[10] = tested on: velvetleaf (Abutilon theophrasti medicus); experiment: as above; details: foliage treatment, 1,000 g active ingredient per 1 hectare, 14th day after application, greenhouse
Summary of the method: as §3

[11] = tested on: barnyardgrass (Echinochloa crus-galli (L.) P. Beauv. var. crus-galli); experiment: as above; details: foliage treatment, 1,000 g active ingredient per 1 hectare, 14th day after application, greenhouse
Summary of the method: as §3

SMILES: CC(C)(C)c1ccc(-n2c(C(F)(F)F)ccc(C(=O)C3=C(O)CCCC3=O)c2=O)cc1 [I-96]
- herbicidal effect, Echinochloa oryzicola Vasing [1]: 5 (90% or more of herbicidal effect and crop phytotoxicity)
- herbicidal effect, Monochoria vaginalis (Burm. f.) C. Presl [2]: 5 (90% or more of herbicidal effect and crop phytotoxicity)
- herbicidal effect, Scirpus juncoides Roxb. [3]: 5 (90% or more of herbicidal effect and crop phytotoxicity)
- herbicidal effect (index), Slender Amaranth [4]: 3 (50 to less than 70% of herbicidal effect and crop phytotoxicity)
- herbicidal effect (index), Green Foxtail [5]: 5 (90% or more of herbicidal effect and crop phytotoxicity)
- herbicidal effect (index), Velvetleaf [6]: 5 (90% or more of herbicidal effect and crop phytotoxicity)
- herbicidal effect (index), Barnyardgrass [7]: 5 (90% or more of herbicidal effect and crop phytotoxicity)

SMILES: O=C1CCCC(O)=C1C(=O)c1ccc(C(F)(F)F)n(Cc2cc(Cl)nc(Cl)c2)c1=O [I-124]
- herbicidal effect, Echinochloa oryzicola Vasing [1]: 5 (90% or more of herbicidal effect and crop phytotoxicity)
- herbicidal effect, Monochoria vaginalis (Burm. f.) C. Presl [2]: 5 (90% or more of herbicidal effect and crop phytotoxicity)
- herbicidal effect, Scirpus juncoides Roxb. [3]: 5 (90% or more of herbicidal effect and crop phytotoxicity)
- herbicidal effect (index), Slender Amaranth [4]: 5 (90% or more of herbicidal effect and crop phytotoxicity)
- herbicidal effect (index), Green Foxtail [5]: 5 (90% or more of herbicidal effect and crop phytotoxicity)
- herbicidal effect (index), Velvetleaf [6]: 5 (90% or more of herbicidal effect and crop phytotoxicity)
- herbicidal effect (index), Barnyardgrass [7]: 5 (90% or more of herbicidal effect and crop phytotoxicity)

SMILES: CCCCCNn1c(C(F)(F)F)ccc(C(=O)C2=C(O)CCCC2=O)c1=O [I-165]
- herbicidal effect, Echinochloa oryzicola Vasing [1]: 5 (90% or more of herbicidal effect and crop phytotoxicity)
- herbicidal effect, Monochoria vaginalis (Burm. f.) C. Presl [2]: 5 (90% or more of herbicidal effect and crop phytotoxicity)
- herbicidal effect, Scirpus juncoides Roxb. [3]: 5 (90% or more of herbicidal effect and crop phytotoxicity)
- herbicidal effect (index), Slender Amaranth [4]: 5 (90% or more of herbicidal effect and crop phytotoxicity)
- herbicidal effect (index), Green Foxtail [5]: 3 (50 to less than 70% of herbicidal effect and crop phytotoxicity)
- herbicidal effect (index), Velvetleaf [6]: 5 (90% or more of herbicidal effect and crop phytotoxicity)
- herbicidal effect (index), Barnyardgrass [7]: 5 (90% or more of herbicidal effect and crop phytotoxicity)

SMILES: O=C1CCCC(O)=C1C(=O)c1ccc(C(F)(F)F)n(NCCCCl)c1=O [I-167]
- herbicidal effect, Echinochloa oryzicola Vasing [1]: 5 (90% or more of herbicidal effect and crop phytotoxicity)
- herbicidal effect, Monochoria vaginalis (Burm. f.) C. Presl [2]: 5 (90% or more of herbicidal effect and crop phytotoxicity)
- herbicidal effect, Scirpus juncoides Roxb. [3]: 5 (90% or more of herbicidal effect and crop phytotoxicity)
- herbicidal effect (index), Slender Amaranth [4]: 5 (90% or more of herbicidal effect and crop phytotoxicity)
- herbicidal effect (index), Green Foxtail [5]: 5 (90% or more of herbicidal effect and crop phytotoxicity)
- herbicidal effect (index), Velvetleaf [6]: 5 (90% or more of herbicidal effect and crop phytotoxicity)
- herbicidal effect (index), Barnyardgrass [7]: 5 (90% or more of herbicidal effect and crop phytotoxicity)

SMILES: CCCS(=O)(=O)Oc1c(C(=O)c2ccc(C(F)(F)F)n(CCC=C(Cl)Cl)c2=O)cnn1C [IV-31]
- herbicidal effect (index), Slender Amaranth [4]: 5 (90% or more of herbicidal effect and crop phytotoxicity)
- herbicidal effect (index), Green Foxtail [5]: 3 (50 to less than 70% of herbicidal effect and crop phytotoxicity)
- herbicidal effect (index), Velvetleaf [6]: 4 (70 to less than 90% of herbicidal effect and crop phytotoxicity)
- herbicidal effect (index), Barnyardgrass [7]: 4 (70 to less than 90% of herbicidal effect and crop phytotoxicity)

SMILES: Cn1ncc(C(=O)c2ccc(C(F)(F)F)n(CC3CCCO3)c2=O)c1OS(=O)(=O)c1ccc([N+](=O)[O-])cc1 (stereo not drawn) [IV-142]
- herbicidal effect, Echinochloa oryzicola Vasing [1]: 5 (90% or more of herbicidal effect and crop phytotoxicity)
- herbicidal effect, Monochoria vaginalis (Burm. f.) C. Presl [2]: 5 (90% or more of herbicidal effect and crop phytotoxicity)
- herbicidal effect, Scirpus juncoides Roxb. [3]: 5 (90% or more of herbicidal effect and crop phytotoxicity)
- herbicidal effect, Slender Amaranth [8]: 5 (90% or more of herbicidal effect and crop phytotoxicity)
- herbicidal effect, Green Foxtail [9]: 5 (90% or more of herbicidal effect and crop phytotoxicity)
- herbicidal effect, Velvetleaf [10]: 5 (90% or more of herbicidal effect and crop phytotoxicity)
- herbicidal effect, Barnyardgrass [11]: 5 (90% or more of herbicidal effect and crop phytotoxicity)

SMILES: C=C(C)Cn1c(C(F)(F)F)ccc(C(=O)c2cnn(C)c2OC(C)=O)c1=O [IV-180]
- herbicidal effect, Echinochloa oryzicola Vasing [1]: 5 (90% or more of herbicidal effect and crop phytotoxicity)
- herbicidal effect, Monochoria vaginalis (Burm. f.) C. Presl [2]: 5 (90% or more of herbicidal effect and crop phytotoxicity)
- herbicidal effect, Scirpus juncoides Roxb. [3]: 5 (90% or more of herbicidal effect and crop phytotoxicity)
- herbicidal effect, Slender Amaranth [8]: 5 (90% or more of herbicidal effect and crop phytotoxicity)
- herbicidal effect, Green Foxtail [9]: 4 (70 to less than 90% of herbicidal effect and crop phytotoxicity)
- herbicidal effect, Velvetleaf [10]: 5 (90% or more of herbicidal effect and crop phytotoxicity)
- herbicidal effect, Barnyardgrass [11]: 5 (90% or more of herbicidal effect and crop phytotoxicity)

SMILES: COc1ccccc1COc1c(C(=O)c2ccc(C(F)(F)F)n(C)c2=O)cnn1C [IV-193]
- herbicidal effect, Echinochloa oryzicola Vasing [1]: 5 (90% or more of herbicidal effect and crop phytotoxicity)
- herbicidal effect, Monochoria vaginalis (Burm. f.) C. Presl [2]: 5 (90% or more of herbicidal effect and crop phytotoxicity)
- herbicidal effect, Scirpus juncoides Roxb. [3]: 5 (90% or more of herbicidal effect and crop phytotoxicity)
- herbicidal effect, Slender Amaranth [8]: 5 (90% or more of herbicidal effect and crop phytotoxicity)
- herbicidal effect, Green Foxtail [9]: 4 (70 to less than 90% of herbicidal effect and crop phytotoxicity)
- herbicidal effect, Velvetleaf [10]: 5 (90% or more of herbicidal effect and crop phytotoxicity)
- herbicidal effect, Barnyardgrass [11]: 3 (50 to less than 70% of herbicidal effect and crop phytotoxicity)

SMILES: CCn1ncc(C(=O)c2ccc(C(F)(F)F)n(C)c2=O)c1OC(C)=O [IV-208]
- herbicidal effect, Echinochloa oryzicola Vasing [1]: 5 (90% or more of herbicidal effect and crop phytotoxicity)
- herbicidal effect, Monochoria vaginalis (Burm. f.) C. Presl [2]: 5 (90% or more of herbicidal effect and crop phytotoxicity)
- herbicidal effect, Scirpus juncoides Roxb. [3]: 5 (90% or more of herbicidal effect and crop phytotoxicity)
- herbicidal effect, Slender Amaranth [8]: 5 (90% or more of herbicidal effect and crop phytotoxicity)
- herbicidal effect, Green Foxtail [9]: 4 (70 to less than 90% of herbicidal effect and crop phytotoxicity)
- herbicidal effect, Velvetleaf [10]: 5 (90% or more of herbicidal effect and crop phytotoxicity)
- herbicidal effect, Barnyardgrass [11]: 5 (90% or more of herbicidal effect and crop phytotoxicity)

SMILES: CC(=O)Oc1c(C(=O)c2ccc(C(F)(F)F)n(C)c2=O)cnn1C(C)C [IV-220]
- herbicidal effect, Echinochloa oryzicola Vasing [1]: 5 (90% or more of herbicidal effect and crop phytotoxicity)
- herbicidal effect, Monochoria vaginalis (Burm. f.) C. Presl [2]: 5 (90% or more of herbicidal effect and crop phytotoxicity)
- herbicidal effect, Scirpus juncoides Roxb. [3]: 5 (90% or more of herbicidal effect and crop phytotoxicity)
- herbicidal effect, Slender Amaranth [8]: 5 (90% or more of herbicidal effect and crop phytotoxicity)
- herbicidal effect, Green Foxtail [9]: 3 (50 to less than 70% of herbicidal effect and crop phytotoxicity)
- herbicidal effect, Velvetleaf [10]: 5 (90% or more of herbicidal effect and crop phytotoxicity)
- herbicidal effect, Barnyardgrass [11]: 4 (70 to less than 90% of herbicidal effect and crop phytotoxicity)

SMILES: Cc1nn(C)c(O)c1C(=O)c1ccc(C(F)(F)F)n(C)c1=O [IV-231]
- herbicidal effect, Echinochloa oryzicola Vasing [1]: 5 (90% or more of herbicidal effect and crop phytotoxicity)
- herbicidal effect, Monochoria vaginalis (Burm. f.) C. Presl [2]: 5 (90% or more of herbicidal effect and crop phytotoxicity)
- herbicidal effect, Scirpus juncoides Roxb. [3]: 5 (90% or more of herbicidal effect and crop phytotoxicity)
- herbicidal effect, Slender Amaranth [8]: 5 (90% or more of herbicidal effect and crop phytotoxicity)
- herbicidal effect, Green Foxtail [9]: 5 (90% or more of herbicidal effect and crop phytotoxicity)
- herbicidal effect, Velvetleaf [10]: 5 (90% or more of herbicidal effect and crop phytotoxicity)
- herbicidal effect, Barnyardgrass [11]: 3 (50 to less than 70% of herbicidal effect and crop phytotoxicity)

SMILES: N#CC(C(=O)c1ccc(C(F)(F)F)n(CC(F)(F)F)c1=O)=C(O)C1CC1 [V-22]
- herbicidal effect (index), Slender Amaranth [4]: 5 (90% or more of herbicidal effect and crop phytotoxicity)
- herbicidal effect (index), Green Foxtail [5]: 4 (70 to less than 90% of herbicidal effect and crop phytotoxicity)
- herbicidal effect (index), Velvetleaf [6]: 5 (90% or more of herbicidal effect and crop phytotoxicity)
- herbicidal effect (index), Barnyardgrass [7]: 4 (70 to less than 90% of herbicidal effect and crop phytotoxicity)
